From ChEMBL document CHEMBL2440096, “Synthesis, structure analysis, antitumor evaluation and 3D-QSAR studies of 3,6-disubstituted-dihydro-1,2,4,5-tetrazine derivatives” (Bioorg Med Chem Lett, 2013) come the findings set out here.

pIC50: −log10 of the molar value.

The test system of one assay is A549. The experiment in a line: Antiproliferative activity against human A549 cells by SRB assay. The settings on record: for pIC50: read-out: IC50; for IC50: read-out: pIC50 (converted). The assay is classed as functional, cell-based. A general note: Sulforhodamine B stains cellular protein and so reports cell mass.
The test system of another assay is P388. The experiment in a line: Antiproliferative activity against mouse P388 cells by MTT assay. The assay is classed as functional, cell-based.

One may read the pIC50 as the negative decadic logarithm of the IC50, by convention in mol/L. Regarding `COc1cc(NC(=O)N2N=C(C)N(C(=O)Nc3cc(OC)cc(OC)c3)N=C2C)cc(OC)c1`, in the assay with A549, the pIC50 is 7.46 and the IC50 is 0.035 µM.
For `CCOC(=O)N1C(c2ccccc2)=NN=C(c2ccccc2)N1C(=O)OCC`, the negative-log IC50 (pIC50) in the assay with P388 is 4.95; in the assay on A549 it was 4.58.
The corresponding values for `COC(=O)N1C(c2ccccc2)=NN=C(c2ccccc2)N1C(=O)OC` are below 4.00 and below 4.00.
For `c1ccc(C2=NNC(c3ccccc3)=NN2)cc1`, in the assay with A549, the negative-log IC50 (pIC50) was 4.70 and the IC50 was 19.9 µM.
In the same order, the values of `CC1=NN(C(=O)Nc2cccc(C)c2)C(C)=NN1C(=O)Nc1cccc(C)c1` are 6.24 and 0.574 µM.
Turning to `CCCC1=NN(C(=O)Nc2ccccc2)C(CCC)=NN1C(=O)Nc1ccccc1`, in the assay on A549, the pIC50 was 5.27 and the IC50 is 5.42 µM.
The corresponding values for `CCCC1=NN(C(=O)Nc2cccc(Cl)c2)C(CCC)=NN1C(=O)Nc1cccc(Cl)c1` are 5.96 and 1.1 µM.
The corresponding values for `CC1=NN(C(=O)Nc2cc(C)cc(C)c2)C(C)=NN1C(=O)Nc1cc(C)cc(C)c1` are 5.44 and 3.66 µM.
Regarding `CC(C)C(=O)N1N=C(c2ccccc2)NN=C1c1ccccc1`, in the assay with A549, the pIC50 is 5.65 and the IC50 is 2.22 µM.
On to `O=C(CCl)N1N=C(c2ccc(C(F)(F)F)cc2)NN=C1c1ccc(C(F)(F)F)cc1`, for which, in the assay with A549, the pIC50 was 5.07 and the IC50 was 8.53 µM.
`CCC(=O)N1N=C(c2ccc(C(F)(F)F)cc2)NN=C1c1ccc(C(F)(F)F)cc1`: in the assay with A549, the negative logarithm of the IC50 (pIC50) is 5.02 and the IC50 was 9.55 µM.
As for `CC(=O)N1N=C(c2ccccc2)NN=C1c1ccccc1`, in the assay with A549, the negative-log IC50 (pIC50) was 4.35 and the IC50 is 44.7 µM.
In the same order, the values of `O=C(CCl)N1N=C(c2ccccc2)NN=C1c1ccccc1` are 5.73 and 1.85 µM.
The corresponding values for `CCC(=O)N1N=C(c2ccccc2)NN=C1c1ccccc1` are 4.32 and 48.3 µM.
Regarding `Oc1ccc(Cl)cc1C1=NN=C(c2cc(Cl)ccc2O)NN1`, in the assay with A549, the negative-log IC50 (pIC50) was 4.88 and the IC50 was 13.2 µM.
`Clc1ccc(C2=NN=C(c3ccc(Cl)cc3)NN2)cc1`: in the assay on A549, the negative logarithm of the IC50 (pIC50) was 4.29 and the IC50 is 51.8 µM.
In the same order, the values of `CCCCN1N=C(C)N(CCCC)N=C1C` are 4.16 and 68.5 µM.
The corresponding values for `CC1=NN(C(=O)Nc2cccc(O)c2)C(C)=NN1C(=O)Nc1cccc(O)c1` are 5.26 and 5.55 µM.
For `CC1=NN(C(=O)Nc2ccccc2O)C(C)=NN1C(=O)Nc1ccccc1O`, in the assay with A549, the negative-log IC50 (pIC50) was 4.24 and the IC50 was 57.3 µM.
With `COc1ccccc1NC(=O)N1N=C(c2ccccc2)NN=C1c1ccccc1`, in the assay with A549, the pIC50 was 4.35 and the IC50 is 44.9 µM.
With `COC(=O)N1N=C(c2cccc(Cl)c2)N(C(=O)OC)N=C1c1cccc(Cl)c1`, in the assay on A549, the negative logarithm of the IC50 (pIC50) is 4.05 and the IC50 is 88.9 µM.
`COC(=O)N1N=C(c2cccc([N+](=O)[O-])c2)N(C(=O)OC)N=C1c1cccc([N+](=O)[O-])c1`: in the assay with A549, the pIC50 is 4.08 and the IC50 is 83.6 µM.
The corresponding values for `COC(=O)N1N=C(c2ccc(Cl)cc2)N(C(=O)OC)N=C1c1ccc(Cl)cc1` are 4.12 and 76.7 µM.
For `COC(=O)N1N=C(c2ccc(Cl)cc2Cl)N(C(=O)OC)N=C1c1ccc(Cl)cc1Cl`, in the assay on A549, the pIC50 was 4.10 and the IC50 is 79.3 µM.
Consider `O=S(=O)(c1ccccc1)N1N=C(c2ccccc2)N(S(=O)(=O)c2ccccc2)N=C1c1ccccc1`, for which, in the assay with A549, the pIC50 is 4.13 and the IC50 was 74.1 µM.
The corresponding values for `O=S(=O)(c1ccccc1)N1N=C(c2ccc(Cl)cc2)N(S(=O)(=O)c2ccccc2)N=C1c1ccc(Cl)cc1` are 4.28 and 51.9 µM.
In the same order, the values of `COc1ccc(C2=NN(S(=O)(=O)c3ccccc3)C(c3ccc(OC)cc3)=NN2S(=O)(=O)c2ccccc2)cc1` are 4.23 and 58.7 µM.
For `Cc1ccc(S(=O)(=O)N2N=C(c3ccccc3)N(S(=O)(=O)c3ccc(C)cc3)N=C2c2ccccc2)cc1`, in the assay on A549, the negative logarithm of the IC50 (pIC50) is 4.07 and the IC50 was 85.7 µM.
Regarding `Clc1ccc(CC2=NNC(Cc3ccc(Cl)cc3)=NN2)cc1`, in the assay on A549, the pIC50 was 4.29 and the IC50 was 51.8 µM.
In the case of `CCCOC(=O)N1C(c2ccc(C(F)(F)F)cc2)=NN=C(c2ccc(C(F)(F)F)cc2)N1C(=O)OCCC`, the pIC50 in the assay with P388 and in the assay on A549 was below 4.00 each time.
As for `O=C(Oc1ccccc1)N1C(c2ccc(C(F)(F)F)cc2)=NN=C(c2ccc(C(F)(F)F)cc2)N1C(=O)Oc1ccccc1`, the negative-log IC50 (pIC50) in the assay on P388 is 4.58; in the assay with A549, 4.84.
As to `O=C(OCC1CCCCC1)N1C(c2ccc(C(F)(F)F)cc2)=NN=C(c2ccc(C(F)(F)F)cc2)N1C(=O)OCC1CCCCC1`, the negative-log IC50 (pIC50) with P388 and in the assay on A549 was below 4.00 in each case.
In the assay on P388, `COC(=O)N1N=C(c2ccccc2)NN=C1c1ccccc1` had a pIC50 below 4.00. In the assay with A549, the pIC50 is 4.40 and the IC50 is 39.5 µM.
On to `CCOC(=O)N1N=C(c2ccccc2)NN=C1c1ccccc1`, for which the pIC50 in the assay on P388 and in the assay with A549 was below 4.00 each time.
With `CCCOC(=O)N1N=C(c2ccccc2)NN=C1c1ccccc1`, the pIC50 in the assay on P388 and in the assay on A549 was below 4.00 each time.
Consider `CCCCCOC(=O)N1N=C(c2ccccc2)NN=C1c1ccccc1`, for which, in the assay with P388, the pIC50 is 4.93. Also, in the assay on A549, the negative logarithm of the IC50 (pIC50) was 4.39 and the IC50 was 40.8 µM.
Molecule `CC(C)CCOC(=O)N1N=C(c2ccccc2)NN=C1c1ccccc1` gave a pIC50 with P388 of 4.61. In the assay with A549, the pIC50 was 4.35 and the IC50 was 44.2 µM.
With `O=C(OCCCl)N1N=C(c2ccccc2)NN=C1c1ccccc1`, the pIC50 in the assay on P388 is below 4.00; with A549 it was 4.00.
`CCOC(=O)N1N=C(c2ccc(C(F)(F)F)cc2)NN=C1c1ccc(C(F)(F)F)cc1`: the pIC50 in the assay on P388 was 4.61; in the assay with A549 it was 6.24. Moreover, the IC50 with A549 is 0.575 µM.
The corresponding values for `COC(=O)N1N=C(c2ccc(Cl)cc2)NN=C1c1ccc(Cl)cc1` are 4.46, 4.31 and 49.4 µM.
`O=C(OCC1CCCCC1)N1C(c2ccccc2)=NN=C(c2ccccc2)N1C(=O)OCC1CCCCC1`: the pIC50 in the assay on P388 and in the assay on A549 was below 4.00 in each case.
As to `COC(=O)N1C(c2ccc(C(F)(F)F)cc2)=NN=C(c2ccc(C(F)(F)F)cc2)N1C(=O)OC`, the pIC50 with P388 is 4.52; with A549, 5.68.
In the same order, the values of `CCOC(=O)N1C(c2ccc(C(F)(F)F)cc2)=NN=C(c2ccc(C(F)(F)F)cc2)N1C(=O)OCC` are below 4.00 and 4.29.
Consider `CCCC1=NN(C(=O)Nc2cccc(C)c2)C(CCC)=NN1C(=O)Nc1cccc(C)c1`, for which, in the assay with A549, the pIC50 is 6.00 and the IC50 is 1 µM.
The corresponding values for `CCC1=NN(C(=O)Nc2cccc(C)c2)C(CC)=NN1C(=O)Nc1cccc(C)c1` are 6.19 and 0.64 µM.
Consider `CCCOC(=O)N1C(c2ccccc2)=NN=C(c2ccccc2)N1C(=O)OCCC`, for which the values for the negative-log IC50 (pIC50) in the assay with P388 and in the assay on A549 were 4.93 and below 4.00, respectively.
Consider `CC(C)C(=O)N1N=C(c2ccc(C(F)(F)F)cc2)NN=C1c1ccc(C(F)(F)F)cc1`, for which, in the assay on A549, the pIC50 is 4.50 and the IC50 was 31.6 µM.
`CC(=O)N1N=C(c2ccc(C(F)(F)F)cc2)NN=C1c1ccc(C(F)(F)F)cc1`: in the assay with A549, the pIC50 was 5.01 and the IC50 was 9.75 µM.
The corresponding values for `FC(F)(F)c1ccc(C2=NN=C(c3ccc(C(F)(F)F)cc3)NN2)cc1` are 4.40 and 40 µM.
